The results in this text go back to paper PMC4207410, “Clicked Cinnamic/Caffeic Esters and Amides as Radical Scavengers and 5-Lipoxygenase Inhibitors” (International Journal of Medicinal Chemistry, 2014).

A value given as a limit tells only on which side of the number the result lay.

A short description of data set [1]: Antiradical activity assay (DPPH radical scavenging). To be noted: DPPH in ethanol, 30 min in the dark at room temperature, absorbance 520 nm; mean [SD] of 2 experiments. As for the experimental part:
The radical scavenging activity of test compounds was measured as previously described using 2,2-diphenyl-1-picrylhydrazyl (DPPH) as a stable radical with slight modifications. Particular care was taken in the preparation of the control (DPPH reagent + ethanol as a diluent without test compounds). Controls with O.D. of 0.350-0.360 at 520 nm were deemed as acceptable to avoid variations in IC50 calculations. 1 mL of DPPH in ethanol ([…]) was mixed with 1 mL of the test compounds at the indicated concentrations or their diluent (ethanol). Each mixture was then shaken vigorously and held in the dark for 30 min at room temperature. The absorbance of DPPH at 520 nm was then measured. The radical scavenging activity was expressed in terms of % inhibition of DPPH absorbance: (1) % Inhibition=[(Acontrol−Atest)/(Acontrol)] ×100, where A control is the absorbance of the control (DPPH solution without test compound) and A test is the absorbance of the test sample (DPPH solution plus compound). Data are expressed as means ± SD of 2 independent experiments, each performed in triplicate (Table 1). IC50 values were calculated from a sigmoidal concentration-response curve fitting model with a variable slope on GraphPad Prism 5 software (GraphPad software, San Diego, California).
Radical scavenging activities of analogous cinnamoyl esters 8a–h, cinnamoyl amides 9a–h, caffeoyl esters 15a–h, and caffeoyl amides 16a–h were assayed using 2,2-diphenyl-1-picrylhydrazyl (DPPH) as a stable radical and are expressed as IC50 concentrations in Table 1.

Data set [2] concerns the target T1, 5-LO (Homo sapiens, UniProt P09917).
T1 sequence (P09917 1-674): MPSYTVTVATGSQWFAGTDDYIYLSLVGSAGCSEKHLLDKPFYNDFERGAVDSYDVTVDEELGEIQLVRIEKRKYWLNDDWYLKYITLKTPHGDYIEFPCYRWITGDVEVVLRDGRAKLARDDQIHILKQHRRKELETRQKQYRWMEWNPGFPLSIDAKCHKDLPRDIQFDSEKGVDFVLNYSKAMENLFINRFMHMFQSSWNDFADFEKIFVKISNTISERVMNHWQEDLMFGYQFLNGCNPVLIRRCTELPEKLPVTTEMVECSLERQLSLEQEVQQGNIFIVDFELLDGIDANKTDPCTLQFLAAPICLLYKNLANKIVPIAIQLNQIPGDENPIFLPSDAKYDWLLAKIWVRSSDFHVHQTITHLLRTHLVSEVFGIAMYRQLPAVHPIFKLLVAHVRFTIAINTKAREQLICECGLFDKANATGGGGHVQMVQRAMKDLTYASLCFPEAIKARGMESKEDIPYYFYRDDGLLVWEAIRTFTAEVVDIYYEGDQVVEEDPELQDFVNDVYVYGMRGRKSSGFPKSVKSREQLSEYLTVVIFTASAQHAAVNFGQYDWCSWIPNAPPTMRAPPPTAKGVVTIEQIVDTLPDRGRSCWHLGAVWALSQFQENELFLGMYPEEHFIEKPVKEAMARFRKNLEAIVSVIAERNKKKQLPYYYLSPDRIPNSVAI
Description: 5-LO products biosynthesis assay in thapsigargin-stimulated human PMNL. In kind it is cell-based. The following applies: for potency relative to Zileuton (1) in human PMNL: comparison of IC50 values, thapsigargin-stimulated human PMNL; for IC50: read-out: Human PMNL IC50 (μM) [SD]. On the set-up: 5-LO is highly expressed in PMNL; endogenous in cells; host or cells: human PMNL from peripheral blood. Here is the method:
Human PMNL were prepared from peripheral blood as described and were suspended in HBSS containing 1.6 mM CaCl2 (10^7 cells/mL) and preincubated with compounds for 5 min at 37°C in the presence of 1 U/mL of adenosine deaminase (Sigma-Aldrich, Oakville, ON, Canada). Cells were then stimulated for 15 min at 37°C with 1 μM thapsigargin (Sigma-Aldrich). Reactions were stopped by the addition of 0.5 volume of cold MeOH : CH3CN (1 : 1) and 50 ng of PGB2 as internal standard and samples were stored at −20°C until processing on octadecyl (C18) columns and RP-HPLC analysis as indicated above. Data are expressed as means ± SEM of 3 independent experiments, each performed in duplicate (Figures 4 and 5).
5-LO is highly expressed in PMNL and these cells are important producers of LTB4 [28, 32].

Data set [3] concerns the target T1, 5-LO. Description: 5-LO products biosynthesis assay in whole HEK293 cells stably transfected with 5-LO and FLAP. It is filed as cell-based. Also on record: expressed in transfected cells. To be noted: for potency relative to Zileuton (1) in HEK293 cells: comparison of IC50 values. The source says:
HEK293 cells were cotransfected with a pcDNA3.1 vector expressing 5-LO and a pBUDCE4.1 vector expressing 5-LO activating protein (FLAP) using Polyfect reagent (QIAGEN, Mississauga, ON, Canada) according to the manufacturer's protocol. Stable transfections of HEK293 cells were obtained following cell culture in the presence of Geneticin and Zeocin (Invitrogen, Burlington, ON, Canada). The resulting stable double transfectants were propagated in culture and aliquots were frozen. Once thawed for a series of experiments, each aliquot of cells is cultured for a maximum of 6 weeks before being discarded.
For cell stimulation of 5-LO products, transfected HEK293 cells were collected following trypsinization, washed and the cell pellet was resuspended in Hank's balanced salt solution (HBSS) (Lonza, Walkersville, MD) containing 1.6 mM CaCl2 at a concentration of 5 × 10^5 cells mL^−1. Cells were preincubated with each compound at the indicated concentration for 5 min at 37°C. Cells were then stimulated for 15 minutes at 37°C with the addition of 10 μM calcium ionophore A23187 (Sigma-Aldrich, Oakville, ON, Canada) and 10 μM arachidonic acid (Cayman Chemical, Ann Arbor, MI). Stimulations were stopped and processed on RP-HPLC as described previously. Data are expressed as means ± SEM of 3 independent experiments, each performed in duplicate (Figures 2 and 3).

For orientation: melting point means the temperature, or range, at which the solid turns liquid. Compound `O=C(C=Cc1ccccc1)OCCn1ccnn1` [8a, 2-(1H-1,2,3-Triazol-1-yl)ethyl Cinnamate] returned a melting point of 99 to 100 °C.
Still for that read-out and setting: under `CCCc1cn(CCOC(=O)C=Cc2ccccc2)nn1` [8b, 2-(4-Propyl-1H-1,2,3-triazol-1-yl)ethyl Cinnamate] stands 63 to 64 °C; under `O=C(C=Cc1ccccc1)OCCn1cc(C2CCCCC2)nn1` [8c], 119 °C; under `O=C(C=Cc1ccccc1)OCCn1cc(C2=CCCCC2)nn1` [8d], 101 to 103 °C.
Still for that read-out and setting: with `O=C(C=Cc1ccccc1)OCCn1cc(-c2ccccc2)nn1` [8e] the figure was 122 to 123 °C.
Still for that read-out and setting: under `Cc1ccc(-c2cn(CCOC(=O)C=Cc3ccccc3)nn2)cc1` [8f] stands 139 to 140 °C; under `O=C(C=Cc1ccccc1)OCCn1cc(-c2ccc(F)cc2)nn1` [8g], 134 to 135 °C.
Turning to `O=Cc1ccc(-c2cn(CCOC(=O)C=Cc3ccccc3)nn2)cc1` [8h], the melting point fell in the range of 127 to 128 °C.
The same measure, in the same setting: with `O=C(C=Cc1ccccc1)NCCn1ccnn1` [9a] the figure was 140 to 141 °C.
The compound `O=C(C=Cc1ccccc1)NCCn1cc(C2CCCCC2)nn1` [9c] had a melting point of 159 to 161 °C.
Same read-out and setting: with `O=C(C=Cc1ccccc1)NCCn1cc(C2=CCCCC2)nn1` [9d] the figure was 170 to 171 °C; with `O=C(C=Cc1ccccc1)NCCn1cc(-c2ccccc2)nn1` [9e], 171 to 173 °C; with `Cc1ccc(-c2cn(CCNC(=O)C=Cc3ccccc3)nn2)cc1` [9f], 208 °C.
On the same count and under the same terms, with `O=C(C=Cc1ccccc1)NCCn1cc(-c2ccc(F)cc2)nn1` [9g] the figure was 193 to 196 °C; with `O=Cc1ccc(-c2cn(CCNC(=O)C=Cc3ccccc3)nn2)cc1` [9h], 200 to 201 °C.
Usually IC50 stands for the concentration that gives 50% inhibition. On to `O=C(/C=C/c1ccc(O)c(O)c1)OCCn1ccnn1` [15a, (E)-2-(1H-1,2,3-Triazol-1-yl)ethyl 3-(3,4-Dihydroxyphenyl)acrylate], for which the melting point was 196 to 198 °C (dec.). The compound also returned an IC50 in data set [1] of 9.55 µM. Further, at 5-LO [2] (stimulated human PMNL, 1 μM), the “5-LO inhibition in stimulated human PMNL (in words)” value is on record as “complete loss of inhibition”.
For the compound `CCCc1cn(CCOC(=O)/C=C/c2ccc(O)c(O)c2)nn1` [15b], the melting point was 180 to 181 °C (dec.). Besides, the IC50 in data set [1] is 9.37 µM.
For `O=C(/C=C/c1ccc(O)c(O)c1)OCCn1cc(C2CCCCC2)nn1` [15c], in that order: 191 °C (dec.) and 9.3 µM.
Consider `O=C(/C=C/c1ccc(O)c(O)c1)OCCn1cc(C2=CCCCC2)nn1` [15d], for which the melting point is 219 to 220 °C (dec.). In data set [1], this compound returned an IC50 of 8.7 µM. In addition, the “5-LO inhibition in stimulated human PMNL (in words)” value at 5-LO [2] (stimulated human PMNL, 1 μM) was “roughly equipotent with Zileuton”.
Take `O=C(/C=C/c1ccc(O)c(O)c1)OCCn1cc(-c2ccccc2)nn1` [15e]: the melting point was 193 to 195 °C (dec.). In data set [1], it took 15.1 µM to reach half-maximal inhibition (IC50).
Take `Cc1ccc(-c2cn(CCOC(=O)/C=C/c3ccc(O)c(O)c3)nn2)cc1` [15f]: the melting point is 181 to 182 °C (dec.). Further, at 5-LO [3], the “potency relative to Zileuton (1) in HEK293 cells” value was “four times more potent than Zileuton”. Further, 9.01 µM corresponded to half-maximal inhibition in data set [1] (IC50). Moreover, at 5-LO [2], the “potency relative to Zileuton (1) in human PMNL” value is on record as “equivalent to Zileuton” and the IC50 was 3.1 µM. At 5-LO [2] (stimulated human PMNL, 1 μM), the “5-LO inhibition in stimulated human PMNL (in words)” value is listed as “roughly equipotent with Zileuton”.
Take `O=C(/C=C/c1ccc(O)c(O)c1)OCCn1cc(-c2ccc(F)cc2)nn1` [15g]: the melting point was 238 to 240 °C (dec.). In addition, the “potency relative to Zileuton (1) in HEK293 cells” value on 5-LO [3] is on record as “four times more potent than Zileuton”. This compound also came in with an IC50 in data set [1] of 9.4 µM. Further, on 5-LO [2], the “potency relative to Zileuton (1) in human PMNL” value is reported as “equivalent to Zileuton” and the IC50 worked out at 3.3 µM.
For `O=Cc1ccc(-c2cn(CCOC(=O)/C=C/c3ccc(O)c(O)c3)nn2)cc1` [15h], the melting point is 220 to 230 °C (dec.). The compound further showed an IC50 in data set [1] of 8.85 µM. For the same compound, at 5-LO [2] (stimulated human PMNL, 1 μM), the “5-LO inhibition in stimulated human PMNL (in words)” value is listed as “roughly equipotent with Zileuton”.
In the case of `O=C(/C=C/c1ccc(O)c(O)c1)NCCn1ccnn1` [16a], the melting point was 163 to 165 °C. The same compound returned an IC50 in data set [1] of 15.4 µM.
For `CCCc1cn(CCNC(=O)/C=C/c2ccc(O)c(O)c2)nn1` [16b], in that order: 163 to 165 °C and 12.1 µM.
`O=C(/C=C/c1ccc(O)c(O)c1)NCCn1cc(C2CCCCC2)nn1` [16c] showed a melting point of 183 to 184 °C. In addition, half-maximal inhibition in data set [1] (IC50) was put at 9.87 µM.
For `O=C(/C=C/c1ccc(O)c(O)c1)NCCn1cc(C2=CCCCC2)nn1` [16d] the same measures were 168 to 169 °C and 11.2 µM.
For `O=C(/C=C/c1ccc(O)c(O)c1)NCCn1cc(-c2ccccc2)nn1` [16e], in that order: 208 °C (dec.) and 10.5 µM.
For `O=Cc1ccc(-c2cn(CCNC(=O)/C=C/c3ccc(O)c(O)c3)nn2)cc1` [16h] the same measures were 228 to 230 °C (dec.) and 18.1 µM.
Consider `O=C1O[C@H]([C@@H](O)CO)C(O)=C1O` [Ascorbic acid, reference compound], for which 75.4 µM corresponded to half-maximal inhibition in data set [1] (IC50).
As usually defined, the inhibition is the drop in the measured response relative to a control, in per cent. Regarding `O=C(/C=C/c1ccc(O)c(O)c1)OCCc1ccccc1` [CAPE 2, caffeic acid phenethyl ester, reference compound], on 5-LO [3] (whole HEK293 cells, 1 μM), the “5-LO products synthesis, % of the control value” is “roughly 50%”. Further, the inhibition at 1 µM at 5-LO [3] (whole HEK293 cells, 1 μM, read-out: inhibition of LTs biosynthesis) was approximately 50%; on 5-LO [2] (read-out: inhibition of 5-LO, stimulated human PMNL, 1 μM), approximately 75%. Besides, the midpoint of inhibition in data set [1], the IC50, lay at 16.5 µM.
Turning to `CC(c1cc2ccccc2s1)N(O)C(N)=O` (stereo not drawn) [Zileuton 1, Zileuton, reference compound], the “5-LO inhibition in whole HEK293 cells (in words)” value on 5-LO [3] (whole HEK293 cells, 1 μM) is “little to no activity”. The compound further had an inhibition at 10 µM against 5-LO [3] (whole HEK293 cells, 10 μM (not shown)) of approximately 25%. Moreover, the IC50 in data set [1] was more than 100 µM.
With `O=C(/C=C/c1ccc(O)c(O)c1)OCCn1cc(COC(=O)/C=C/c2ccccc2)nn1` [compound 3, reference compound], it took 12 µM to reach half-maximal inhibition in data set [1] (IC50). At 5-LO [2] (stimulated human PMNL, 1 μM), the “5-LO inhibition in stimulated human PMNL (in words)” value was “roughly equipotent with Zileuton”.
